In the supplement of paper PMC10307832:

Columns and labels:
Test in all cases: relative viability (nuclei count vs DMSO), 5 days (fraction); higher = more cells survive
[1] = compound: COC1=CC=C(C=C1)CN2C=CC3=C2C=C(C=C3)C(=O)NO + Cc1nc(Nc2ncc(C(=O)Nc3c(C)cccc3Cl)s2)cc(N2CCN(CCO)CC2)n1 [Dasatinib] (partner 0.075 µM)
Outline: (§1)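 Lung cancer cell lines in 1536-well plates were dosed by pin tool the day after seeding, either with one drug alone or with a fixed anchor-drug dose plus five library-drug doses (not always all listed) in √10 steps. After 5 days, cells were fixed and their nuclei stained in one step (final 0.05% Triton X-100, 1% formaldehyde, 1 ug/ml Hoechst), then counted on 4× images. Relative viability is the nuclei count in treated wells divided by that in vehicle wells. Values are medians of duplicate plates.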

Veliparib + Bortezomib = compound: C[C@]1(c2nc3c(C(N)=O)cccc3[nH]2)CCCN1 [Veliparib] + CC(C)C[C@H](NC(=O)[C@H](Cc1ccccc1)NC(=O)c1cnccn1)B(O)O [Bortezomib] (partner 0.002 µM)
Outline: as §1

Veliparib + Tozasertib = compound: C[C@]1(c2nc3c(C(N)=O)cccc3[nH]2)CCCN1 [Veliparib] + Cc1cc(Nc2cc(N3CCN(C)CC3)nc(Sc3ccc(NC(=O)C4CC4)cc3)n2)n[nH]1 [Tozasertib] (partner 0.1 µM)
Outline: as §1

Veliparib + Pemetrexed = compound: C[C@]1(c2nc3c(C(N)=O)cccc3[nH]2)CCCN1 [Veliparib] + Nc1nc2[nH]cc(CCc3ccc(C(=O)N[C@@H](CCC(=O)O)C(=O)O)cc3)c2c(=O)[nH]1 [Pemetrexed] (partner 0.2 µM)
Outline: as §1

Cell Line | relative viability ([1]; first compound 0.08 µM) | relative viability ([1]; first compound 0.253 µM) | relative viability ([1]; first compound 0.8 µM) | relative viability ([1]; first compound 2.53 µM) | relative viability ([1]; first compound 8 µM) | relative viability (Veliparib + Bortezomib; first compound 0.02 µM) | relative viability (Veliparib + Bortezomib; first compound 0.06325 µM) | relative viability (Veliparib + Bortezomib; first compound 0.2 µM) | relative viability (Veliparib + Bortezomib; first compound 0.6325 µM) | relative viability (Veliparib + Bortezomib; first compound 2 µM) | relative viability (Veliparib + Tozasertib; first compound 0.02 µM) | relative viability (Veliparib + Tozasertib; first compound 0.06325 µM) | relative viability (Veliparib + Tozasertib; first compound 0.2 µM) | relative viability (Veliparib + Tozasertib; first compound 0.6325 µM) | relative viability (Veliparib + Tozasertib; first compound 2 µM) | relative viability (Veliparib + Pemetrexed; first compound 0.02 µM) | relative viability (Veliparib + Pemetrexed; first compound 0.06325 µM) | relative viability (Veliparib + Pemetrexed; first compound 0.2 µM) | relative viability (Veliparib + Pemetrexed; first compound 0.6325 µM) | relative viability (Veliparib + Pemetrexed; first compound 2 µM)
LOU-NH91 | 0.516 | 0.532 | 0.54 | 0.593 | 0.523 | 0.486 | 0.387 | 0.511 | 0.464 | 0.476 | 0.647 | 0.684 | 0.729 | 0.584 | 0.746 | 0.394 | 0.374 | 0.39 | 0.374 | 0.374
LU99A |  | 0.606 | 0.649 | 0.711 | 0.439 | 1.16 | 1.1 | 0.833 | 1.06 | 1.29 | 0.328 | 0.271 | 0.239 | 0.245 | 0.279 | 0.207 | 0.184 | 0.205 | 0.196 | 0.181
LXF-289 |  | 0.202 | 0.237 | 0.246 | 0.181 | 0.997 | 0.975 | 1 | 0.959 | 1.02 | 0.194 | 0.193 | 0.233 | 0.208 | 0.216 | 0.897 | 1.02 | 0.913 | 0.856 | 0.997
NCI-H23 | 0.877 | 0.775 | 0.801 | 0.784 | 0.637 | 0.887 | 1.04 | 1.02 | 0.883 | 1.08 | 0.38 | 0.429 | 0.434 | 0.381 | 0.426 | 0.615 | 0.593 | 0.623 | 0.747 | 0.622
NCI-H322M |  | 0.255 | 0.255 | 0.262 | 0.226 | 1.25 | 1.15 | 1.26 | 1.07 | 1.17 |  | 0.425 | 0.416 | 0.499 | 0.422 |  | 0.582 | 0.611 | 0.568 | 0.614
NCI-H441 | 0.613 | 0.621 | 0.623 | 0.567 | 0.485 | 0.472 | 0.293 | 0.533 | 0.365 | 0.401 | 0.633 | 0.608 | 0.529 | 0.541 | 0.683 | 0.292 | 0.265 | 0.3 | 0.254 | 0.289
NCI-H460 | 0.545 | 0.556 | 0.553 | 0.48 | 0.343 |  | 0.952 | 1.01 | 1.07 | 1.09 | 0.512 | 0.438 | 0.334 | 0.478 | 0.308 | 0.0617 | 0.0618 | 0.0599 | 0.0593 | 0.0663
NCI-H520 | 0.16 | 0.228 | 0.213 | 0.232 | 0.281 | 0.532 | 0.67 | 0.791 | 0.608 | 0.643 | 0.337 | 0.488 | 0.439 | 0.47 | 0.503 | 0.877 | 0.657 | 0.904 | 0.637 | 0.674
NCI-H596 | 0.588 | 0.614 | 0.603 | 0.558 | 0.465 | 1.14 | 1 | 1.06 | 1.11 | 0.902 | 0.838 | 0.774 | 0.99 | 0.859 | 0.811 | 0.475 | 0.451 | 0.463 | 0.509 | 0.474
NCI-H647 | 0.126 | 0.198 | 0.179 | 0.186 | 0.186 | 1.23 | 1 | 0.847 | 0.985 | 0.965 | 0.28 | 0.346 | 0.263 | 0.357 | 0.254 | 0.167 | 0.188 | 0.192 | 0.175 | 0.216
NCI-H650 | 0.492 | 0.432 | 0.473 | 0.474 | 0.408 | 0.635 | 0.675 | 0.64 | 0.744 | 0.565 | 0.809 | 0.683 | 0.773 | 0.686 | 0.799 | 0.992 | 0.895 | 0.868 | 0.822 | 0.961
NCI-H661 |  | 0.985 | 0.957 | 0.802 | 0.579 | 0.635 | 0.877 | 0.767 | 0.731 | 0.777 | 0.349 | 0.363 | 0.336 | 0.329 | 0.388 | 0.973 | 0.897 | 0.918 | 0.865 | 0.901
NCI-H838 |  | 0.265 | 0.31 | 0.297 | 0.258 | 0.905 | 0.79 | 0.926 | 0.686 | 0.848 | 0.344 | 0.28 | 0.285 | 0.256 | 0.25 | 0.262 | 0.255 | 0.244 | 0.269 | 0.269
NCI-H1355 |  | 0.764 | 0.717 | 0.698 | 0.679 |  | 0.707 | 1.23 | 1.09 | 1.15 |  | 0.534 | 0.559 | 0.507 | 0.539 | 0.874 | 0.998 | 1.01 | 0.962 | 1
NCI-H1437 | 0.332 | 0.339 | 0.469 | 0.466 | 0.395 | 0.424 | 0.496 | 0.472 | 0.47 | 0.474 | 0.384 | 0.438 | 0.43 | 0.406 | 0.399 | 0.31 | 0.276 | 0.325 | 0.356 | 0.34
NCI-H1650 | 0.342 | 0.292 | 0.317 | 0.351 | 0.254 |  | 0.195 | 0.204 | 0.2 | 0.182 |  | 0.441 | 0.486 | 0.448 | 0.526 | 0.388 | 0.332 | 0.373 | 0.331 | 0.362
NCI-H1651 | 0.311 | 0.452 | 0.43 | 0.358 | 0.331 | 0.924 | 0.883 | 0.908 | 0.918 | 0.876 | 0.864 | 0.654 | 0.646 | 0.604 | 0.545 | 0.55 | 0.65 | 0.578 | 0.537 | 0.563
